Results taken from ChEMBL document CHEMBL5661943, “ASAP - In vitro antiviral effect” (2024).
pEC50: −log10 of the molar value.

Assays:
Zika virus [1] = assay: Functional CPE-based assay to measure dose dependent changes in antiviral-drug inhibitory efficacy against Zika virus MR766 in Vero E6 miRFP670 cells. Cells are treated with antiviral candidates that are serially diluted. EC50 is reported via analysis of MTS assay as a readout of CPE. The assay has been performed by KU Leuven.; format: organism-based, Chlorocebus sabaeus, Vero C1008; details: Zika virus; for pEC50: Vero C1008
Zika virus [2] = assay: EC50 is reported via analysis of immunofluorescence staining. The assay has been performed by Icahn School of Medicine at Mount Sinai.; format: functional, organism-based, Chlorocebus sabaeus, VeroE6/TMPRSS2; details: Zika virus; for EC90: P-gp concentration 2 uM, P-gp inhibitor Elacidar
dengue virus type 2 [3] = assay: Functional immunofluorescence assay to measure dose dependent changes in antiviral-drug inhibitory efficacy against Dengue virus type 2 Thailand/16681/84 in Vero E6/TMPRSS2 cells (cotreated with P-gp inhibitor, Elacridar). Cells are treated with antiviral candidates that are serially diluted, following infection, cells are fixed. EC50 is reported via analysis of immunofluorescence staining. The assay has been performed by Icahn School of Medicine at Mount Sinai.; format: organism-based, Chlorocebus sabaeus, VeroE6/TMPRSS2; details: Dengue virus
dengue virus type 2 [4] = assay: Functional assay to measure dose dependent changes in antiviral-drug inhibitory efficacy against Dengue virus type 2 New Guinea C in Vero E6 miRFP670 cells (cotreated with P-gp inhibitor, CP100356). Cells are treated with antiviral candidates that are serially diluted, following infection, cells are fixed. EC50 is reported via analysis of fluorescence intensity using high-content imager. The …; format: organism-based, Chlorocebus sabaeus, Vero C1008; details: Dengue virus
Zika virus [5] = assay: Functional immunofluorescence assay to measure dose dependent changes in antiviral-drug inhibitory efficacy against Zika virus PRVABC59 in Vero E6/TMPRSS2 cells. Cells are treated with antiviral candidates that are serially diluted, following infection, cells are fixed. EC50 is reported via analysis of immunofluorescence staining. The assay has been performed by Icahn School of Medicine at Mount Sinai.; format: organism-based, Chlorocebus sabaeus

| Compound | pEC50 (Zika virus [1]) | pEC50 (Zika virus [2]; VeroE6/TMPRSS2) | pEC50 (dengue virus type 2 [3]; VeroE6/TMPRSS2) | pEC50 (dengue virus type 2 [4]; Vero C1008) | EC90 (dengue virus type 2 [3]; VeroE6/TMPRSS2) | also measured |
| --- | --- | --- | --- | --- | --- | --- |
| CC(C)Cc1nc2c(C(=O)Nc3ccc4c(c3)CNC4)cc(Br)cc2[nH]1 | < 4.30 | < 5.26 | < 5.26 | < 6.11 |  | EC90 (Zika virus [1]; Vero C1008, Baseline response 0 %, Hill slope 1.82, Maximum measured 17.962 %, Maximum response 100 %, Minimum measured -5.537 %, R squared 0.817): > 50 µM; EC90 (Zika virus [2]; VeroE6/TMPRSS2, Baseline response 0 %, Hill slope -10.435, Maximum measured 137.671 %, Maximum response 100 %, Minimum measured 68.671 %, R squared 0.096): > 5.56 µM; EC90 (dengue virus type 2 [3]; VeroE6/TMPRSS2, Maximum measured 192.149 %, Minimum measured 144.973 %, P-gp concentration 2 uM, P-gp inhibitor Elacidar): > 5.56 µM; EC90 (dengue virus type 2 [4]; Vero C1008, Maximum measured 122.11 %, Minimum measured 121.973 %, P-gp concentration 500 nM, P-gp inhibitor CP100356): > 0.781 µM |
| O=C(Nc1ccc2c(c1)CNC2)c1cc(Cl)cc(-n2cccc2)c1 | < 4.30 | < 5.26 | 4.82 | 4.74 |  | EC90 (Zika virus [1]; Vero C1008, Baseline response 0 %, Hill slope 0.167, Maximum measured 17.974 %, Maximum response 100 %, Minimum measured 0.845 %, R squared 0.067): > 50 µM; EC90 (Zika virus [2]; VeroE6/TMPRSS2, Maximum measured 131.342 %, Minimum measured 97.756 %): > 5.56 µM; EC90 (Zika virus [2]; VeroE6/TMPRSS2, Baseline response 0 %, Hill slope -0.378, Maximum measured 125.075 %, Maximum response 100 %, Minimum measured 52.976 %, R squared 0.223): > 5.56 µM; EC90 (dengue virus type 2 [3]; VeroE6/TMPRSS2, Baseline response 0 %, Hill slope -12.71, Maximum measured 168.092 %, Maximum response 100 %, Minimum measured 22.727 %, P-gp concentration 2 uM, R squared 0.109, P-gp inhibitor Elacidar): > 16.7 µM; EC90 (dengue virus type 2 [4]; Vero C1008, Baseline response 0 %, Hill slope -1.567, Maximum measured 91.76 %, Maximum response 100 %, Minimum measured 2.031 %, P-gp concentration 500 nM, R squared 0.898, P-gp inhibitor CP100356): > 50 µM |
| Clc1ccc2[nH]cc(Cc3ccc(-c4nn[nH]n4)cc3)c2c1 | < 4.30 | 4.40 | 4.61 | < 4.30 | 34 µM | EC90 (Zika virus [1]; Vero C1008, Maximum measured 1.604 %, Minimum measured -1.05 %): > 50 µM; EC90 (Zika virus [2]; VeroE6/TMPRSS2, Baseline response 0 %, Hill slope -2.483, Maximum measured 171.794 %, Maximum response 100 %, Minimum measured 35.965 %, R squared 0.343): > 50 µM; EC90 (dengue virus type 2 [4]; Vero C1008): > 50 µM |
| O=C(Nc1ccc2c(c1)CNC2)c1cc(Cl)cc(C2CC2)c1 | > 6.41 | < 5.26 | < 4.30 | < 4.90 |  | EC90 (Zika virus [1]; Vero C1008, Baseline response 0 %, Hill slope -0.16, Maximum measured 19.084 %, Maximum response 100 %, Minimum measured -10.525 %, R squared 0.01): < 0.391 µM; EC90 (Zika virus [2]; VeroE6/TMPRSS2, Baseline response 0 %, Hill slope -0.303, Maximum measured 133.833 %, Maximum response 100 %, Minimum measured 73.063 %, R squared 0.118): > 5.56 µM; EC90 (dengue virus type 2 [3]; VeroE6/TMPRSS2, Baseline response 0 %, Hill slope -0.218, Maximum measured 127.968 %, Maximum response 100 %, Minimum measured 35.242 %, P-gp concentration 2 uM, R squared 0.016, P-gp inhibitor Elacidar): > 50 µM; EC90 (dengue virus type 2 [4]; Vero C1008, Baseline response 0 %, Hill slope -18.192, Maximum measured 115.18 %, Maximum response 100 %, Minimum measured 61.318 %, P-gp concentration 500 nM, R squared 0.219, P-gp inhibitor CP100356): > 12.5 µM |
| O=C(Nc1ccc2c(c1)CNC2)c1cc(Br)cc2[nH]c(-c3ccccc3)nc12 | > 6.41 | < 5.26 | < 4.30 | < 4.30 |  | EC90 (Zika virus [1]; Vero C1008, Baseline response 0 %, Hill slope -0.169, Maximum measured 22.843 %, Maximum response 100 %, Minimum measured -3.22 %, R squared 0.045): < 0.391 µM; EC90 (Zika virus [2]; VeroE6/TMPRSS2, Maximum measured 77.487 %, Minimum measured 34.255 %): > 5.56 µM; EC90 (dengue virus type 2 [3]; VeroE6/TMPRSS2, Maximum measured 303.364 %, Minimum measured 144.726 %, P-gp concentration 2 uM, P-gp inhibitor Elacidar): > 50 µM; EC90 (dengue virus type 2 [4]; Vero C1008, Baseline response 0 %, Hill slope -0.881, Maximum measured 119.709 %, Maximum response 100 %, Minimum measured 77.354 %, P-gp concentration 500 nM, R squared 0.142, P-gp inhibitor CP100356): > 50 µM |
| O=C(Nc1ccc2c(c1)CNCCC2)c1cc(Cl)cc2[nH]ncc12 | < 4.30 | 4.32 | 4.59 | < 5.81 | 45 µM | EC90 (Zika virus [1]; Vero C1008, Baseline response 0 %, Hill slope 0.723, Maximum measured 1.937 %, Maximum response 100 %, Minimum measured -1.308 %, R squared 0.05): > 50 µM; EC90 (Zika virus [1]; Vero C1008, Maximum measured 5.01 %, Minimum measured -5.78 %): > 50 µM; EC90 (Zika virus [2]; VeroE6/TMPRSS2, Baseline response 0 %, Hill slope -16.818, Maximum measured 150.619 %, Maximum response 100 %, Minimum measured 30.484 %, R squared 0.241): > 50 µM; EC90 (dengue virus type 2 [4]; Vero C1008, Baseline response 0 %, Hill slope 9.827, Maximum measured 112.729 %, Maximum response 100 %, Minimum measured 86.907 %, P-gp concentration 500 nM, R squared 0.124, P-gp inhibitor CP100356): > 1.56 µM |
| O=C(Nc1cc(Cl)cc(C(=O)NCc2ccc(-c3nnn[nH]3)cc2)c1)OCc1ccccc1 | < 4.30 | < 4.78 | 4.61 | < 4.30 | 40.9 µM | EC90 (Zika virus [1]; Vero C1008, Baseline response 0 %, Hill slope 2.99, Maximum measured 29.669 %, Maximum response 100 %, Minimum measured 0.824 %, R squared 0.934): > 50 µM; EC90 (Zika virus [2]; VeroE6/TMPRSS2, Maximum measured 73.474 %, Minimum measured 51.372 %): > 16.7 µM; EC90 (dengue virus type 2 [4]; Vero C1008, Maximum measured 125.704 %, Minimum measured 70.659 %, P-gp concentration 500 nM, P-gp inhibitor CP100356): > 50 µM |
| CC(C)(C)NC(=O)[C@H](Nc1cccc(-c2nn[nH]n2)c1)c1cc(Cl)cc(NC(=O)OCc2ccccc2)c1 | 4.30 | 4.43 | < 4.30 | 4.30 |  | EC90 (Zika virus [1]; Vero C1008, Baseline response 0 %, Hill slope 4.346, Maximum measured 50.323 %, Maximum response 100 %, Minimum measured -0.582 %, R squared 0.944): > 50 µM; EC90 (Zika virus [2]; VeroE6/TMPRSS2, Baseline response 0 %, Hill slope -8.55, Maximum measured 97.768 %, Maximum response 77.157 %, Minimum measured 5.982 %, R squared 0.78): 48.4 µM; EC90 (dengue virus type 2 [3]; VeroE6/TMPRSS2, Maximum measured 98.938 %, Minimum measured 28.549 %, P-gp concentration 2 uM, P-gp inhibitor Elacidar): > 50 µM; EC90 (dengue virus type 2 [4]; Vero C1008, Baseline response 0 %, Hill slope -29.373, Maximum measured 114.47 %, Maximum response 100 %, Minimum measured 52.367 %, P-gp concentration 500 nM, R squared 0.626, P-gp inhibitor CP100356): > 50 µM |
| CC(C)c1nc2c(C(=O)Nc3ccc4c(c3)CNC4)cc(Br)cc2[nH]1 | > 6.41 | < 5.26 | < 4.78 | < 5.51 |  | EC90 (Zika virus [1]; Vero C1008, Baseline response 0 %, Hill slope -0.56, Maximum measured 41.831 %, Maximum response 100 %, Minimum measured -11.106 %, R squared 0.026): < 0.391 µM; EC90 (Zika virus [2]; VeroE6/TMPRSS2, Baseline response 0 %, Hill slope 0.282, Maximum measured 117.995 %, Maximum response 100 %, Minimum measured 67.231 %, R squared 0.042): > 5.56 µM; EC90 (dengue virus type 2 [3]; VeroE6/TMPRSS2, Maximum measured 259.996 %, Minimum measured 97.005 %, P-gp concentration 2 uM, P-gp inhibitor Elacidar): > 16.7 µM; EC90 (dengue virus type 2 [4]; Vero C1008, Maximum measured 127.324 %, Minimum measured 101.275 %, P-gp concentration 500 nM, P-gp inhibitor CP100356): > 3.12 µM |
| O=C(Nc1cc(Cl)cc(C(=O)Nc2cccc(-c3nnn[nH]3)c2)c1)OCc1ccccc1 |  | 5.57 | 4.31 |  |  | pEC50 (Zika virus [5]; VeroE6/TMPRSS2): < 4.30; EC90 (Zika virus [5]; VeroE6/TMPRSS2, Maximum measured 198.65 %, Minimum measured 79.352 %): > 50 µM; EC90 (Zika virus [2]; VeroE6/TMPRSS2, Baseline response 0 %, Hill slope -0.321, Maximum measured 94.477 %, Maximum response 100 %, Minimum measured 40.195 %, R squared 0.392): > 16.7 µM; EC90 (dengue virus type 2 [3]; VeroE6/TMPRSS2, Baseline response 0 %, Hill slope -12.435, Maximum measured 130.492 %, Maximum response 60 %, Minimum measured 25.847 %, P-gp concentration 2 uM, R squared 0.033, P-gp inhibitor Elacidar): > 50 µM |
